Each substance was assayed on monoclonal antibody D32.39. Conditions: normalized 0 to 100% after background subtraction.
Description: Non-specific protein binding to the surface was blocked with 1% BSA/PBS/0.05% Tween 20. The array was incubated with the D32.39 antibody at a concentration of 10 μg/ml for 2 hours, followed by reaction with 10 μg/ml of FITC conjugated anti-mounse antibody (Sigma) for 2 hours at 20° C. Following extensive washing with buffer, the array was scanned in a confocal fluorescence microscope with 488 nm excitation from an argon ion laser (Spectra-Physics). […] The replicates were averaged, and the data sorted according to desired sequences.

FLRRQFKVVT was tested, and the “relative intensity (normalized fluorescence signal)” value was “about 100%”.

Same assay, conditions: relative fluorescence intensity of the corresponding surface-immobilized peptide (N-acetylated, C-terminal amide link to surface)

Going from Ac-QFKVVT-OH [Ac-QFKVVT-OH] to Ac-RQFKVVT-OH [Ac-RQFKVVT-OH], the “Normalized Intensity (%)” value rises from 28% to 99%.

Compared with Ac-RRQFKVVT-OH, Ac-FLRRQFKVVT-OH is lower in “Normalized Intensity (%)” value: 99% for the first, 98% for the second.

Same assay, conditions: truncated dynorphin peptides, surface-immobilized, N-acetylated, linked via C-terminal amide; D32.39 10 μg/ml 2 hours; ± SD of min. four replicates; […]

RRQFKVVT and LRRQFKVVT are within error of each other in “Normalized Intensity (%)” value: 99 ± 1% for the first, 87 ± 13% for the second.

First: FLRRQF
Second: QFKVVT
The “Normalized Intensity (%)” value of the first is lower: 8 ± 3% for the first, 28 ± 3% for the second.

Compared with RQFK, RRQFKVV is higher in “Normalized Intensity (%)” value: 13 ± 5% for the first, 58 ± 10% for the second.

Compared with QFKV, FLRRQFKVVT is higher in “Normalized Intensity (%)” value: 11 ± 2% for the first, 98 ± 1% for the second.

RRQFKV and KVVT are within error of each other in “Normalized Intensity (%)” value: 16 ± 3% for the first, 11 ± 2% for the second.

FKVV and LRRQFK are within error of each other in “Normalized Intensity (%)” value: 10 ± 2% for the first, 12 ± 3% for the second.

FKVVT and RRQF are within error of each other in “Normalized Intensity (%)” value: 13 ± 4% for the first, 11 ± 5% for the second.

FLRRQ and FLRRQFK are within error of each other in “Normalized Intensity (%)” value: 8 ± 3% for the first, 10 ± 3% for the second.

Compared with RQFKVVT, RQFKVV is lower in “Normalized Intensity (%)” value: 99 ± 1% for the first, 54 ± 11% for the second.

RQFKV and LRRQF are within error of each other in “Normalized Intensity (%)” value: 16 ± 4% for the first, 10 ± 4% for the second.

LRRQ and FLRR are within error of each other in “Normalized Intensity (%)” value: 10 ± 4% for the first, 6 ± 3% for the second.

QFKVV and RRQFK are within error of each other in “Normalized Intensity (%)” value: 17 ± 2% for the first, 12 ± 3% for the second.

Compared with FLRRQFKV, LRRQFKVV is higher in “Normalized Intensity (%)” value: 14 ± 3% for the first, 44 ± 12% for the second.

First: LRRQFKV
Second: FLRRQFKVV
The “Normalized Intensity (%)” value of the first is lower: 16 ± 3% for the first, 37 ± 15% for the second.

Source: patent publication US20030099983A1, “Cyclic and substituted immobilized molecular synthesis” (Affymetrix, Inc., priority 1991, published 2003)
